This note sets out measurements from patent publication US12448394B2, “Heterocyclic pyrazole derivatives as type III receptor tyrosine kinase inhibitors” (DEVELOPMENT CENTER FOR BIOTECHNOLOGY, priority 2019, dated 2025).

In one assay the target is T1, FLT3-D835Y mutant kinase (Homo sapiens, UniProt P36888, D835Y).
T1 construct: purchased SignalChem
T1 sequence (P36888 27-993 D835Y): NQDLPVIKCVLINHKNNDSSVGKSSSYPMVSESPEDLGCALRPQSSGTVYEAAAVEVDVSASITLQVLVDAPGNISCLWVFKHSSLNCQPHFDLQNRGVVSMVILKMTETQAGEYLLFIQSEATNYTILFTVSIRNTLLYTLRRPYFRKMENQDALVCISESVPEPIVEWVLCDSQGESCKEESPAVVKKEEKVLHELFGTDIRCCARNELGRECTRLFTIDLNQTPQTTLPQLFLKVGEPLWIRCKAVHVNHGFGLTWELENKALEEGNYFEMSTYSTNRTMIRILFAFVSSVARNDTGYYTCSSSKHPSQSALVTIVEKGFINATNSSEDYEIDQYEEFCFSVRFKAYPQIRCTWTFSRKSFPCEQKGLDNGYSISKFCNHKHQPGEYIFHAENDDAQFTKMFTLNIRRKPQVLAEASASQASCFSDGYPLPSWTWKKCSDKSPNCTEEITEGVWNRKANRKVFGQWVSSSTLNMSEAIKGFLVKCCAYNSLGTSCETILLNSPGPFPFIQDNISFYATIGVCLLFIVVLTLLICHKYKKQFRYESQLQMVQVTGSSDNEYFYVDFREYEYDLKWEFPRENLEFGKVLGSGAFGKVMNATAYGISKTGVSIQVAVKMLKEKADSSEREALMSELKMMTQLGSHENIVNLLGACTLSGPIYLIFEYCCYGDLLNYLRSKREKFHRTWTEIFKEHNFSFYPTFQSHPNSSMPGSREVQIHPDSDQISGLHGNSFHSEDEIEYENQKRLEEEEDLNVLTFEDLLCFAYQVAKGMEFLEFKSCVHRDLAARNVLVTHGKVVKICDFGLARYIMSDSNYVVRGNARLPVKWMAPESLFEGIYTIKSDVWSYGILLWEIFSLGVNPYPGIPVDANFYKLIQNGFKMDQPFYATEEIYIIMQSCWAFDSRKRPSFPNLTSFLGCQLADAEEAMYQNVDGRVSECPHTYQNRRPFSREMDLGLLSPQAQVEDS
The experiment in a line: FLT3-D835Y mutant kinase assay (AlphaScreen). As to conditions: read-out: Ranking of IC50 values, FLT3-D835Y. The class given is biochemical. A digest of the protocol:
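AlphaScreen readout of biotin-poly(Glu4:Tyr1) phosphorylation by 1 ng recombinant FLT3-D835Y. Conditions were 10 μM ATP, 10 mM MgCl2, MOPS pH 7.0, 30 min at 30 °C, EDTA stop. Compounds were serially diluted in duplicate to derive IC50.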

The subject of assay [1] is Molm-14 human acute myeloid leukemia cell with FLT3-ITD mutation. The experiment in a line: Molm-14 cell proliferation assay (CellTiter 96). The settings on record: Homo sapiens; Molm-14 cells, 72 hours treatment, CellTiter96; read-out: anti-proliferation activity Molm-14 (FLT3-ITD), IC50 ranking. The class given is cell-based. A digest of the protocol:
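Molm-14 (FLT3-ITD AML) cells in RPMI 1640 with 10% heat-inactivated FBS were seeded at 25000 cells/well, incubated overnight at 37° C, 5% CO2, then treated with increasing compound concentrations for 72 hours. Viability was read as absorbance at 490 nm after 2˜4 hours with CellTiter96 AQueous One reagent.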

The next assay has as its target T2, MET kinase (Homo sapiens, UniProt P08581).
T2 construct: purchased SignalChem
The experiment in a line: MET kinase assay (AlphaScreen, counter screen). The class given is biochemical. The settings on record: read-out: Ranking of IC50 values, MET. A digest of the protocol: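 IC50 came from duplicate serial dilutions, with AlphaScreen detection of phosphorylated biotin-poly(Glu4:Tyr1). The reaction used 1 ng recombinant MET, 10 µM ATP […], and MOPS pH 7.0/MgCl2 buffer, ran 45 min at 30 °C, and was quenched with EDTA.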
On the technique in general: Alpha assays give light when donor and acceptor beads are brought close together.

T2 sequence (P08581 25-1390): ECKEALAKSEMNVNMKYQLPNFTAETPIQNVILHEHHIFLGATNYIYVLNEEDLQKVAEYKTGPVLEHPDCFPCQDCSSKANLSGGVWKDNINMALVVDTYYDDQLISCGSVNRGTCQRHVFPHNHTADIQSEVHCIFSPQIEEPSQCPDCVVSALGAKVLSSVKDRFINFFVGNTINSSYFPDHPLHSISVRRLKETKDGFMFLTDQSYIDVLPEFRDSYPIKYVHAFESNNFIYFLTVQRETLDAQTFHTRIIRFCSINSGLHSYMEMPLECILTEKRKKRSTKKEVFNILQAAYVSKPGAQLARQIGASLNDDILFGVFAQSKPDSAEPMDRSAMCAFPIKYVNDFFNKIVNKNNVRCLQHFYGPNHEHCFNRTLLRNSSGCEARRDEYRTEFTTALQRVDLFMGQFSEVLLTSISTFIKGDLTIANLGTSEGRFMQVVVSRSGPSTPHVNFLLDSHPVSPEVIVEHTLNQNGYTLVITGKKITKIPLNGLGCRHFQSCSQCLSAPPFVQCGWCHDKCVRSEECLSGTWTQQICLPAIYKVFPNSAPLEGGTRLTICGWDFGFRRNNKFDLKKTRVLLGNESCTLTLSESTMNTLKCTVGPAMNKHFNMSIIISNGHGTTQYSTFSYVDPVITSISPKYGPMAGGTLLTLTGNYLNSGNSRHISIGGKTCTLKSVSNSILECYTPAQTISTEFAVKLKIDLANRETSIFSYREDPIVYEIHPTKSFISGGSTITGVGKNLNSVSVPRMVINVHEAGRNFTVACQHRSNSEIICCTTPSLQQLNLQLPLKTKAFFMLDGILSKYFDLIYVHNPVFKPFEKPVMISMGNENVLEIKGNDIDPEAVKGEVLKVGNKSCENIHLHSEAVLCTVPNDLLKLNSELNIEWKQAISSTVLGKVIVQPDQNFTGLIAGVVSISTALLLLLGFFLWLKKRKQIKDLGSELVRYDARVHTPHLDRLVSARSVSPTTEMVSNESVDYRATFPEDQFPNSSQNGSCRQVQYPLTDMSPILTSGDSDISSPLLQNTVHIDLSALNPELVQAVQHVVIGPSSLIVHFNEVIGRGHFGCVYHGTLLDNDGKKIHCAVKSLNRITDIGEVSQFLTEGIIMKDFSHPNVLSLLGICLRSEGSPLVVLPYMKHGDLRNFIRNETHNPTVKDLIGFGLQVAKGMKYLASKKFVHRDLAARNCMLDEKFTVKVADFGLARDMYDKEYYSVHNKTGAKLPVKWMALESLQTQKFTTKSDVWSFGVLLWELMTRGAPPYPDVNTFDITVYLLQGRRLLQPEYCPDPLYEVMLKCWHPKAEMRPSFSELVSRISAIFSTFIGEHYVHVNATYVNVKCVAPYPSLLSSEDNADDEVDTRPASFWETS

With `Cn1ncc2ccc(-c3n[nH]c4c3Cc3sc(-c5cc(F)c(CN6CCOCC6)c(F)c5)cc3-4)cc21` [Compound 53, 4-(2,6-difluoro-4-(3-(1-methyl-1H-indazol-6-yl)-1,4-dihydrothieno [2′,3′:4,5]cyclopenta [1,2-c]pyrazol-6-yl)benzyl)morpholine], the IC50 on FLT3-D835Y mutant kinase is 0.001 to 0.01 µM; in assay [1] it was 0.1 to 0.3 µM; at MET kinase it was above 1 µM.
As for `C[C@@H]1CN(Cc2ccc(-c3cc4c(s3)Cc3c(-c5ccc6cnn(C)c6c5)n[nH]c3-4)cc2)C[C@H](C)O1` [Compound 54, (2S,6R)-2,6-dimethyl-4-(4-(3-(1-methyl-1H-indazol-6-yl)-1,4-dihydro-thieno[2′,3′:4,5]cyclopenta [1,2-c]pyrazol-6-yl)benzyl)morpholine], the IC50 at FLT3-D835Y mutant kinase is below 0.001 µM; in assay [1], 0.03 to 0.1 µM; on MET kinase, above 1 µM.
Turning to `Cn1ncc2ccc(-c3n[nH]c4c3Cc3sc(-c5cc(C(=O)N6CCOCC6)ccn5)cc3-4)cc21` [Compound 56, (2-(3-(1-methyl-1H-indazol-6-yl)-1,4-dihydro-thieno[2′,3′:4,5]cyclopenta [1,2-c]pyrazol-6-yl)pyridin-4-yl)(morpholino) methanone], the IC50 was 0.001 to 0.01 µM at FLT3-D835Y mutant kinase, 0.03 to 0.1 µM in assay [1] and above 1 µM at MET kinase.
With `Cn1ncc2ccc(-c3n[nH]c4c3Cc3sc(C5=CCN(C(=O)N6CCOCC6)CC5)cc3-4)cc21` [Compound 57, (4-(3-(1-methyl-1H-indazol-6-yl)-1,4-dihydro-thieno[2′,3′:4,5]cyclopenta [1,2-c]pyrazol-6-yl)-3,6-dihydropyridin-1(2H)-yl) (morpholino)methanone], the values for the IC50 (on FLT3-D835Y mutant kinase; in assay [1]; on MET kinase) were below 0.001 µM, below 0.03 µM and above 1 µM, respectively.
With `Cn1ncc2ccc(-c3n[nH]c4c3Cc3sc(C5CCN(C(=O)OC(C)(C)C)CC5)cc3-4)cc21` [Compound 58, tert-butyl-4-(3-(1-methyl-1H-indazol-6-yl)-1,4-dihydrothieno[2′,3′:4,5]cyclopenta[1,2-c]pyrazol-6-yl)piperidine-1-carboxylate], the IC50 is 0.001 to 0.01 µM on FLT3-D835Y mutant kinase, 0.1 to 0.3 µM in assay [1] and above 1 µM on MET kinase.
Turning to `Cn1ncc2ccc(-c3n[nH]c4c3Cc3sc(-c5ccc(CN6CCOCC6=O)cc5)cc3-4)cc21` [Compound 59, 4-(4-(3-(1-methyl-1H-indazol-6-yl)-1,4-dihydro-thieno[2′,3′:4,5]cyclopenta [1,2-c]pyrazol-6-yl)benzyl)morpholin-3-one], the figures for the IC50 (at FLT3-D835Y mutant kinase; in assay [1]; at MET kinase) were below 0.001 µM, below 0.03 µM and above 1 µM, respectively.
For the molecule `Cn1ncc2ccc(-c3n[nH]c4c3Cc3sc(-c5csc(C(=O)N6CCOCC6)n5)cc3-4)cc21` [Compound 60, (4-(3-(1-methyl-1H-indazol-6-yl)-1,4-dihydro-thieno[2′,3′:4,5]cyclopenta [1,2-c]pyrazol-6-yl)thiazol-2-yl)(morpholino) methanone], the IC50 on FLT3-D835Y mutant kinase was below 0.001 µM; in assay [1], below 0.03 µM; at MET kinase it was above 1 µM.
For `Cn1ncc2ccc(-c3n[nH]c4c3Cc3sc(-c5ccc(CN6CCCCC6=O)cc5)cc3-4)cc21` [Compound 61, 1-(4-(3-(l-methyl-1H-indazol-6-yl)-1,4-dihydro-thieno[2′,3′:4,5]cyclopenta [1,2-c]pyrazol-6-yl)benzyl)piperidin-2-one] the same measures were below 0.001 µM, below 0.03 µM and above 1 µM.
`Cn1ncc2ccc(-c3n[nH]c4c3Cc3sc(-c5ccc(CN6CCNC(=O)C6)cc5)cc3-4)cc21` [Compound 63, 4-(4-(3-(1-methyl-1H-indazol-6-yl)-1,4-dihydro-thieno[2′,3′:4,5]cyclopenta [1,2-c]pyrazol-6-yl)benzyl)piperazin-2-one]: the IC50 on FLT3-D835Y mutant kinase was 0.001 to 0.01 µM; in assay [1], below 0.03 µM; at MET kinase it was above 1 µM.
Regarding `Cn1ncc2ccc(-c3n[nH]c4c3Cc3sc(-c5ccc(CN6CCCC6=O)cc5)cc3-4)cc21` [Compound 64, 1-(4-(3-(1-methyl-1H-indazol-6-yl)-1,4-dihydro-thieno[2′,3′:4,5]cyclopenta [1,2-c]pyrazol-6-yl)benzyl)pyrrolidin-2-one], the IC50 was 0.001 to 0.01 µM at FLT3-D835Y mutant kinase, below 0.03 µM in assay [1] and above 1 µM at MET kinase.
As to `CC1C(=O)N(C)CCN1Cc1ccc(-c2cc3c(s2)Cc2c(-c4ccc5cnn(C)c5c4)n[nH]c2-3)cc1` (stereo not drawn) [Compound 65, 1,3-dimethyl-4-(4-(3-(1-methyl-1H-indazol-6-yl)-1,4-dihydrothieno [2′,3′:4,5]cyclopenta [1,2-c]pyrazol-6-yl)benzyl)piperazin-2-one], the values for the IC50 (at FLT3-D835Y mutant kinase; in assay [1]; at MET kinase) were below 0.001 µM, below 0.03 µM and above 1 µM, respectively.
On to `Cn1ncc2ccc(-c3n[nH]c4c3Cc3sc(-c5ccc(CCN6CCOCC6=O)cc5)cc3-4)cc21` [Compound 66, 4-(4-(3-(1-methyl-1H-indazol-6-yl)-1,4-dihydro-thieno[2′,3′:4,5]cyclopenta [1,2-c]pyrazol-6-yl)phenethyl)morpholin-3-one], for which the IC50 is below 0.001 µM at FLT3-D835Y mutant kinase, below 0.03 µM in assay [1] and above 1 µM at MET kinase.
As for `Cn1ncc2ccc(-c3n[nH]c4c3Cc3sc(-c5ccc(CN6CCC(F)(F)C6)cc5)cc3-4)cc21` [Compound 67, 6-(4-((3,3-difluoro-pyrrolidin-1-yl)methyl)phenyl)-3-(1-methyl-1H-indazol-6-yl)-1,4-dihydro-thieno[2′,3′:4,5]cyclopenta [1,2-c]pyrazole], the IC50 was 0.001 to 0.01 µM on FLT3-D835Y mutant kinase, 0.1 to 0.3 µM in assay [1] and above 1 µM at MET kinase.
`Cn1ncc2ccc(-c3n[nH]c4c3Cc3sc(-c5ccc(OCCN6CCOCC6)cc5)cc3-4)cc21` [Compound 69, 4-(2-(4-(3-(1-methyl-1H-indazol-6-yl)-1,4-dihydro-thieno[2′,3′:4,5]cyclopenta [1,2-c]pyrazol-6-yl)phenoxy)ethyl)morpholine]: the IC50 on FLT3-D835Y mutant kinase was below 0.001 µM; in assay [1], 0.03 to 0.1 µM; at MET kinase it was above 1 µM.
Regarding `Cn1ncc2ccc(-c3n[nH]c4c3Cc3sc(-c5cccc(OCCN6CCOCC6)c5)cc3-4)cc21` [Compound 70, 4-(2-(3-(3-(1-methyl-1H-indazol-6-yl)-1,4-dihydro-thieno[2′,3′:4,5]cyclopenta [1,2-c]pyrazol-6-yl)phenoxy)ethyl)morpholine], the IC50 on FLT3-D835Y mutant kinase was below 0.001 µM; in assay [1] it was 0.1 to 0.3 µM; on MET kinase, above 1 µM.
For `Cn1ncc2ccc(-c3n[nH]c4c3Cc3sc(C#CCN5CCOCC5)cc3-4)cc21` [Compound 71, 4-(3-(3-(1-methyl-1H-indazol-6-yl)-1,4-dihydro-thieno[2′,3′:4,5]cyclopenta [1,2-c]pyrazol-6-yl)prop-2-yn-1-yl)morpholine], the IC50 on FLT3-D835Y mutant kinase was below 0.001 µM; in assay [1] it was 0.03 to 0.1 µM; at MET kinase, above 1 µM.
As for `Cn1ncc2ccc(-c3n[nH]c4c3Cc3sc(-c5ccc(NC6CCOCC6)cc5)cc3-4)cc21` [Compound 72, N-(4-(3-(1-methyl-1H-indazol-6-yl)-1,4-dihydro-thieno[2′,3′:4,5]cyclopenta [1,2-c]pyrazol-6-yl)phenyl)tetrahydro-2H-pyran-4-amine], the values for the IC50 (on FLT3-D835Y mutant kinase; in assay [1]; at MET kinase) were 0.001 to 0.01 µM, 0.1 to 0.3 µM and above 1 µM, respectively.
